Test results as given in patent US20220289724A1, “KIF18A INHIBITORS” (AMGEN INC., priority 2019, published 2022).

These compounds were tested against T1, Recombinant human KIF18A (1-467 His-tagged) protein (Homo sapiens, UniProt Q8NI77) (assay: KIF18A Enzyme Assay: microtubule-stimulated ATPase activity assay (ADP-Glo)). Conditions: KIF18A protein 30 nM, 30 μg/mL pig microtubules, ATP at Km 75 μM, ADP-Glo luminescence, RT.
T1 construct: Recombinant human KIF18A (1-467 His-tagged) protein; His; made in house
T1 sequence (Q8NI77 1-467): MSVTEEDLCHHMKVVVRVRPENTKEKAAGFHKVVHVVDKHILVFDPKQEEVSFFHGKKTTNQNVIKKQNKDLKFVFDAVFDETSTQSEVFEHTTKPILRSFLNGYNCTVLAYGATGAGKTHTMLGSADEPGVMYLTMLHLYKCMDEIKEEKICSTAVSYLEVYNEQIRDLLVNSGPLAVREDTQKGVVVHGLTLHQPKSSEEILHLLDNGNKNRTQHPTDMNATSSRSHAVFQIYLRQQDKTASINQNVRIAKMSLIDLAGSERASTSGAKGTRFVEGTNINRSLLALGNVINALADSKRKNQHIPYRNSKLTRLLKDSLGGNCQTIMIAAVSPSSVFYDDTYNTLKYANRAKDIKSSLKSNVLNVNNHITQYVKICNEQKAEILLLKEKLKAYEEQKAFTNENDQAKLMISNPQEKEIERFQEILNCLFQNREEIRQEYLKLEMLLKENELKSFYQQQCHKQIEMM
T1 sequence (P02550 whole entry partner): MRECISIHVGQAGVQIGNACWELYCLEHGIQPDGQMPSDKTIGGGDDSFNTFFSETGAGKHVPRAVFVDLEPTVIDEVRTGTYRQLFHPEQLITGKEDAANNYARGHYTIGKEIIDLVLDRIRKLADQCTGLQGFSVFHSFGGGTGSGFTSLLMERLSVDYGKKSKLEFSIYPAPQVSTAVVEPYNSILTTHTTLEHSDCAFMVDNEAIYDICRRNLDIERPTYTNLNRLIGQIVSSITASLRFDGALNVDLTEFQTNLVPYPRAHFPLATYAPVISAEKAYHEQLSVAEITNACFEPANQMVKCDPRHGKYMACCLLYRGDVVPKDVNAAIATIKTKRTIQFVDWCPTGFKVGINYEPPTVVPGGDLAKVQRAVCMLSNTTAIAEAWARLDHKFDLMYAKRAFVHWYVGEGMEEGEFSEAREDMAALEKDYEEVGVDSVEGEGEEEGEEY
T1 sequence (P02554 whole entry partner): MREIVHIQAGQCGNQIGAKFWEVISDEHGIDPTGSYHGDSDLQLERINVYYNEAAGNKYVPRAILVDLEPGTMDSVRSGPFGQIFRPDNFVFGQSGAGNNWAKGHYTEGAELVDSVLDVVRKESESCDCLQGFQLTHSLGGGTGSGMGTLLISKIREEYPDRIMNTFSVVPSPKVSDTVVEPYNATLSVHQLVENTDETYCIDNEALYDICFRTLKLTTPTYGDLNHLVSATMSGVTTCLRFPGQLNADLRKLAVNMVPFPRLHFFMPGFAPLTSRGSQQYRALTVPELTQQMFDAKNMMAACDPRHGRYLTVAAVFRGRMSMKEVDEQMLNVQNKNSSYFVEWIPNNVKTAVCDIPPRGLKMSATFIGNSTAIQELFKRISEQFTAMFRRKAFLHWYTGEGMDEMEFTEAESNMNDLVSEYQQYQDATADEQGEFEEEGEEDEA
Assay type: biochemical
Text: KIF18A Enzyme Assay: Microtubule-stimulated ATPase activity assay is used to measure KIF18A enzyme activity after treatment with compound. Compounds were 2-fold serially diluted in DMSO (Sigma Inc) over 22-point concentration range. Recombinant human KIF18A (1-467 His-tagged) protein was expressed using a baculovirus system and purified by affinity chromatography by Amgen Inc. Concentrations of KIF18A protein, microtubules (MT), and ATP in the reaction were optimized for standardized homogenous enzyme assay using ADP-Glorm Kinase/ATPase Assay Kit (Promega Inc). The assay measures ADP formed from the ATPase reaction. […] Concentration-response curve-fitting and IC50 determination was performed using Genedata Screener Software (Standard 15.0.1, Genedata Inc) with a four-parameter logistic regression fit model.
Table A provides data for compounds exemplified in the present application and priority document thereof, as representative compounds of the present invention, as follows: chemical name (as named by either ACD software or ChemDraw (Professional 15.0)) and biological data (IC50 in μM). Ex. […] refers to Example No.

**Q.** `C[C@@H](CO)S(=O)(=O)Nc1ccc(C(=O)Nc2cccc(S(=O)(=O)NC(C)(C)C)c2)c(N2CCC3(CC2)CC3)c1` (single isomer, unassigned) [Example 105-1] was tested. Which IC50 did it give?
**A.** Its IC50 is 42 nM.

**Q.** Which IC50 does the source give for `C[C@H](CO)S(=O)(=O)Nc1ccc(C(=O)Nc2cccc(S(=O)(=O)NC(C)(C)C)c2)c(N2CCC3(CC2)CC3)c1` (single isomer, unassigned) [Example 105-2] here?
**A.** The IC50 was 57 nM.

**Q.** How did the IC50 turn out when `CC(C)(C)NS(=O)(=O)c1cccc(NC(=O)c2ccc([C@@](C)(O)CO)cc2N2CCC3(CC2)CC3)c1` (single isomer, unassigned) [Example 108-1] was run?
**A.** The IC50 was 92 nM.

**Q.** With `CC(C)(C)NS(=O)(=O)c1cccc(NC(=O)c2ccc([C@](C)(O)CO)cc2N2CCC3(CC2)CC3)c1` (single isomer, unassigned) [Example 108-2] as the compound, how does the IC50 read?
**A.** The IC50 was 141 nM.

**Q.** For `N=[S@](=O)(c1cccc(NC(=O)c2ccc(NS(=O)(=O)CCO)cc2N2CCC3(CC2)CC3)c1)N1CCC1` (single isomer, unassigned) [Example 112-1], which IC50 is on record?
**A.** Its IC50 is 142 nM.

**Q.** For `N=[S@@](=O)(c1cccc(NC(=O)c2ccc(NS(=O)(=O)CCO)cc2N2CCC3(CC2)CC3)c1)N1CCC1` (single isomer, unassigned) [Example 112-2], which IC50 is on record?
**A.** Its IC50 is 160 nM.

**Q.** How did the IC50 turn out when `CC(C)(C)NS(=O)(=O)c1cccc(NC(=O)c2ccc(S(=O)(=O)C3(C)COC3)cc2N2CCC3(CC2)CC3)c1` [Example 100, N-(3-(N-(tert-Butyl)sulfamoyl)phenyl)-4-((3-methyloxetan-3-yl)sulfonyl)-2-(6-azaspiro[2.5]octan-6-yl)benzamide] was run?
**A.** The IC50 was 173 nM.

**Q.** `CC(C)(C)NS(=O)(=O)c1cccc(NC(=O)c2ccc(S(C)(=O)=O)cc2N2CCC3(CC2)CC3)c1` [Example 100-1, N-(3-(N-(tert-butyl)sulfamoyl)phenyl)-4-(methylsulfonyl)-2-(6-azaspiro[2.5]octan-6-yl)benzamide] was tested. Which IC50 did it give?
**A.** The IC50 was 61 nM.

**Q.** With `CC(C)c1cccc(NC(=O)c2ccc(S(C)(=O)=O)cc2N2CCC3(CC2)CC3)c1` [Example 100-2, N-(3-isopropylphenyl)-4-(methylsulfonyl)-2-(6-azaspiro[2.5]octan-6-yl)benzamide] as the compound, how does the IC50 read?
**A.** The IC50 was 94 nM.

**Q.** For `CS(=O)(=O)c1ccc(C(=O)Nc2cccc(C3CC3)c2)c(N2CCC3(CC2)CC3)c1` [Example 100-3, N-(3-cyclopropylphenyl)-4-(methylsulfonyl)-2-(6-azaspiro[2.5]octan-6-yl)benzamide], which IC50 is on record?
**A.** Its IC50 is 187 nM.

**Q.** For `CC(C)(C)c1cccc(NC(=O)c2ccc(S(C)(=O)=O)cc2N2CCC3(CC2)CC3)c1` [Example 100-4, N-(3-(tert-butyl)phenyl)-4-(methylsulfonyl)-2-(6-azaspiro[2.5]octan-6-yl)benzamide], which IC50 is on record?
**A.** The IC50 was 362 nM.

**Q.** How did the IC50 turn out when `CS(=O)(=O)c1ccc(C(=O)Nc2cccc3cccnc23)c(N2CCC3(CC2)CC3)c1` [Example 100-5, 4-(methylsulfonyl)-N-(quinolin-8-yl)-2-(6-azaspiro[2.5]octan-6-yl)benzamide] was run?
**A.** The IC50 was 246 nM.

**Q.** Which IC50 does the source give for `Cc1ccnc2c(NC(=O)c3ccc(S(C)(=O)=O)cc3N3CCC4(CC3)CC4)cccc12` [Example 100-6, N-(4-methylquinolin-8-yl)-4-(methylsulfonyl)-2-(6-azaspiro[2.5]octan-6-yl)benzamide] here?
**A.** Its IC50 is 61 nM.

**Q.** `CS(=O)(=O)c1ccc(C(=O)Nc2cccc3c2OCCC3)c(N2CCC3(CC2)CC3)c1` [Example 100-7, N-(chroman-8-yl)-4-(methylsulfonyl)-2-(6-azaspiro[2.5]octan-6-yl)benzamide] was tested. Which IC50 did it give?
**A.** Its IC50 is 45 nM.

**Q.** Which IC50 does the source give for `CS(=O)(=O)c1ccc(C(=O)Nc2cccc3ccoc23)c(N2CCC3(CC2)CC3)c1` [Example 100-8, N-(benzofuran-7-yl)-4-(methylsulfonyl)-2-(6-azaspiro[2.5]octan-6-yl)benzamide] here?
**A.** Its IC50 is 200 nM.

**Q.** Which IC50 does the source give for `CS(=O)(=O)c1ccc(C(=O)Nc2cccc3ccsc23)c(N2CCC3(CC2)CC3)c1` [Example 100-9, N-(benzo[b]thiophen-7-yl)-4-(methylsulfonyl)-2-(6-azaspiro[2.5]octan-6-yl)benzamide] here?
**A.** Its IC50 is 630 nM.

**Q.** Which IC50 does the source give for `CS(=O)(=O)c1ccc(C(=O)Nc2cccc(N3CCOCC3)c2)c(N2CCC3(CC2)CC3)c1` [Example 100-10, 4-(methylsulfonyl)-N-(3-morpholinophenyl)-2-(6-azaspiro[2.5]octan-6-yl)benzamide] here?
**A.** The IC50 was 862 nM.

**Q.** How did the IC50 turn out when `CC(C)(C)NS(=O)(=O)c1cccc(NC(=O)c2ccc(CS(C)(=O)=O)cc2N2CCC3(CC2)CC3)c1` [Example 100-11, N-(3-(N-(tert-butyl)sulfamoyl)phenyl)-4-((methylsulfonyl)methyl)-2-(6-azaspiro[2.5]octan-6-yl)benzamide] was run?
**A.** Its IC50 is 51 nM.

**Q.** For `CC(C)(C)NS(=O)(=O)c1cccc(NC(=O)c2ccc(CS(=O)(=O)CCO)cc2N2CCC3(CC2)CC3)c1` [Example 100-12, N-(3-(N-(tert-butyl)sulfamoyl)phenyl)-4-(((2-hydroxyethyl)sulfonyl)methyl)-2-(6-azaspiro[2.5]octan-6-yl)benzamide], which IC50 is on record?
**A.** The IC50 was 75 nM.

**Q.** How did the IC50 turn out when `CC(C)(C)NS(=O)(=O)c1cccc(NC(=O)c2ccc(S(=O)(=O)NC(C)(C)C)cc2N2CCC3(CC2)CC3)c1` [Example 100-13, 4-(N-(tert-butyl)sulfamoyl)-N-(3-(N-(tert-butyl)sulfamoyl)phenyl)-2-(6-azaspiro[2.5]octan-6-yl)benzamide] was run?
**A.** Its IC50 is 76 nM.

**Q.** Which IC50 does the source give for `CC(C)(C)NS(=O)(=O)c1cccc(NC(=O)c2ccc(C3(C)COC3)cc2N2CCC3(CC2)CC3)c1` [Example 100-14, N-(3-(N-(tert-butyl)sulfamoyl)phenyl)-4-(3-methyloxetan-3-yl)-2-(6-azaspiro[2.5]octan-6-yl)benzamide] here?
**A.** The IC50 was 130 nM.

**Q.** Which IC50 does the source give for `CC(C)(C)NS(=O)(=O)c1cccc(NC(=O)c2ccc(C3(O)COC3)cc2N2CCC3(CC2)CC3)c1` [Example 100-15, N-(3-(N-(tert-butyl)sulfamoyl)phenyl)-4-(3-hydroxyoxetan-3-yl)-2-(6-azaspiro[2.5]octan-6-yl)benzamide] here?
**A.** The IC50 was 88 nM.

**Q.** How did the IC50 turn out when `CC(C)(CO)Nc1cccc(NC(=O)c2ccc(S(=O)(=O)NC3(C)COC3)cc2N2CCC3(CC2)CC3)c1F` [Example 101-1, N-(2-fluoro-3-((1-hydroxy-2-methylpropan-2-yl)amino)phenyl)-4-(N-(3-methyloxetan-3-yl)sulfamoyl)-2-(6-azaspiro[2.5]octan-6-yl)benzamide] was run?
**A.** The IC50 was 66 nM.

**Q.** With `CC(C)(CO)Nc1cccc(NC(=O)c2ccc(NS(=O)(=O)C3(C)CC3)cc2N2CCC3(CC2)CC3)c1F` [Example 101-2, N-(2-fluoro-3-((1-hydroxy-2-methylpropan-2-yl)amino)phenyl)-4-((1-methylcyclopropane)-1-sulfonamido)-2-(6-azaspiro[2.5]octan-6-yl)benzamide] as the compound, how does the IC50 read?
**A.** The IC50 was 298 nM.

**Q.** Which IC50 does the source give for `CC(C)(CO)Nc1cccc(NC(=O)c2ccc(NS(=O)(=O)C3(C)CC3)cc2N2CCC3(CC2)CC3)c1` [Example 101-3, N-(3-((1-hydroxy-2-methylpropan-2-yl)amino)phenyl)-4-((1-methylcyclopropane)-1-sulfonamido)-2-(6-azaspiro[2.5]octan-6-yl)benzamide] here?
**A.** The IC50 was 115 nM.

**Q.** With `CC(C)(C)NS(=O)(=O)c1cccc(NC(=O)c2ccc(NS(=O)(=O)C3(C)CC3)cc2N2CCC3(CC2)CC3)c1` [Example 102, N-(3-(N-(tert-Butyl)sulfamoyl)phenyl)-4-((1-methylcyclopropane)-1-sulfonamido)-2-(6-azaspiro[2.5]octan-6-yl)benzamide] as the compound, how does the IC50 read?
**A.** Its IC50 is 61 nM.

**Q.** How did the IC50 turn out when `CC(C)(C)NS(=O)(=O)c1cccc(NC(=O)c2ccc(NS(C)(=O)=O)cc2N2CCC3(CC2)CC3)c1` [Example 102-1, N-(3-(N-(tert-butyl)sulfamoyl)phenyl)-4-(methylsulfonamido)-2-(6-azaspiro[2.5]octan-6-yl)benzamide] was run?
**A.** The IC50 was 27 nM.

**Q.** For `CCS(=O)(=O)Nc1ccc(C(=O)Nc2cccc(S(=O)(=O)NC(C)(C)C)c2)c(N2CCC3(CC2)CC3)c1` [Example 102-2, N-(3-(N-(tert-butyl)sulfamoyl)phenyl)-4-(ethylsulfonamido)-2-(6-azaspiro[2.5]octan-6-yl)benzamide], which IC50 is on record?
**A.** The IC50 was 34 nM.

**Q.** `CC(C)S(=O)(=O)Nc1ccc(C(=O)Nc2cccc(S(=O)(=O)NC(C)(C)C)c2)c(N2CCC3(CC2)CC3)c1` [Example 102-3, N-(3-(N-(tert-butyl)sulfamoyl)phenyl)-4-((1-methylethyl)sulfonamido)-2-(6-azaspiro[2.5]octan-6-yl)benzamide] was tested. Which IC50 did it give?
**A.** Its IC50 is 26 nM.

**Q.** How did the IC50 turn out when `CC(C)(C)NS(=O)(=O)c1cccc(NC(=O)c2ccc(NS(=O)(=O)C3CC3)cc2N2CCC3(CC2)CC3)c1` [Example 102-4, N-(3-(N-(tert-butyl)sulfamoyl)phenyl)-4-(cyclopropanesulfonamido)-2-(6-azaspiro[2.5]octan-6-yl)benzamide] was run?
**A.** The IC50 was 30 nM.

**Q.** With `CC(C)(C)NS(=O)(=O)c1cccc(NC(=O)c2ccc(NS(=O)(=O)C(C)(C)C)cc2N2CCC3(CC2)CC3)c1` [Example 102-5, N-(3-(N-(tert-butyl)sulfamoyl)phenyl)-4-((1,1-dimethylethyl)sulfonamido)-2-(6-azaspiro[2.5]octan-6-yl)benzamide] as the compound, how does the IC50 read?
**A.** Its IC50 is 63 nM.

**Q.** Which IC50 does the source give for `CC(C)(C)NS(=O)(=O)c1cccc(NC(=O)c2ccc(N3CCCS3(=O)=O)cc2N2CCC3(CC2)CC3)c1` [Example 102-6, N-(3-(N-(tert-butyl)sulfamoyl)phenyl)-4-(1,1-dioxidoisothiazolidin-2-yl)-2-(6-azaspiro[2.5]octan-6-yl)benzamide] here?
**A.** Its IC50 is 45 nM.

**Q.** Which IC50 does the source give for `C[C@@H]1CN(c2cccc(NC(=O)c3ccc(NS(=O)(=O)CCO)cc3N3CCC4(CC3)CC4)c2)CCO1` [Example 103-1, (R)-4-((2-hydroxyethyl)sulfonamido)-N-(3-(2-methylmorpholino)phenyl)-2-(6-azaspiro[2.5]octan-6-yl)benzamide] here?
**A.** Its IC50 is 71 nM.
